Five compounds from paper PMC11459959, “Discovery of new acetamide derivatives of 5-indole-1,3,4-oxadiazol-2-thiol as inhibitors of HIV-1 Tat-mediated viral transcription” (Antimicrobial Agents and Chemotherapy, 2024) can be followed below.

For orientation: CC50 means the concentration that lowers cell viability or growth by half. Broadly, the EC50 is the midpoint of the concentration-response curve.

What all share (type): cell-based
Data set [1] is described as follows: Cell viability of TZM-bl cells (PrestoBlue). Particulars: human.
Data set [2] is described as follows: Cell viability of A3.01 cells. Particulars: human. As for the experimental part: (§1) The p24 level from the cell supernatant was subsequently determined using a p24 […] kit (PerkinElmer). In parallel, the cell viability was determined without viral infection because of the viral cytopathic effect. […] In parallel, cell viability was determined. The data (A and B) are presented as the mean ± SD (n = 3). (C) PBMCs (4 × 10^5) infected with HIV-AD8 at an MOI of 0.1 were treated with 1.5 µM of the compounds or ARVs for 3 days. The levels of p24 and cell viability were subsequently determined. (D) J1.1 cells were cultured with the compounds ([…]) under 50 ng/mL phorbol myristate acetate (PMA) treatment for 2 days. The level of p24 was subsequently determined. (E) J-Lat 6.3 cells were treated with the compounds (1.5 µM) under 1 µg/mL of PMA for 2 days. The GFP-positive cell population was analyzed using flow cytometry. The data are represented as a value relative to the DMSO-treated vehicle (D) and a percent of the GFP^+ cell population (E) as mean ± SD (n = 3).
(§2) The inhibitory effects of the compounds on viral replication were determined with some minor modifications, as previously described ([12], [62]). […] PBMCs (4 × 10^5) pre-activated with PHA-M for 3 days were washed with fresh media to remove excess PHA-M and subsequently infected with HIV-1NL4-3 or HIV-1AD8 or PIs-resistant HIV-1 strains as A3.01 infection. After infection, the infectious media were replaced with fresh media supplemented with international 10 units (IU)/mL of IL-2 and the indicated compounds. At 72 h after infection, the inhibitory effect of the compounds on viral replication was determined by measuring the p24 amount, an HIV capsid protein, using an HIV-1 p24 […] kit (PerkinElmer, Waltham, MA, USA). Cell viability was determined as described above. The inhibitory effects on provirus reversing in J1.1 and J-Lat 6.3 cells were determined as previously described ([12], [41], [63]) with some minor modifications. Briefly, 5 × 10^4 persistently HIV-1-infected J1.1 or J-Lat 6.3 cells were cultured in either the presence or absence of the compounds at a final concentration of 1.5 µM and treated with PMA (50 ng/mL for J1.1 cells, 1 µg/mL for J-Lat 6.3 cells). Two days after treatment, the levels of viral production were determined using p24 […] for J1.1 cells and flow cytometry analysis for GFP-expressing J-Lat 6.3 cells.

Another data set deals with HIV-1NL4-3. Kind of data set: HIV-1 replication in A3.01 cells (p24 […]). Particulars: for EC50: Human immunodeficiency virus 1, 72 h, HIV-1NL4-3 MOI 0.1, 3 days; for inhibition of viral replication (in words): fivefold serial dilutions, 3 days. As for the experimental part:
as §1, §2

Data set [3] relates to INSTI-resistant HIV-1 strain 11847. Put plainly: microbe, parasite or virus in culture. Particulars: Human immunodeficiency virus 1, TZM-bl.
The test system of data set [4] is INSTI-resistant HIV-1 strain 11849. Put plainly: microbe, parasite or virus in culture. Particulars: Human immunodeficiency virus 1, TZM-bl.
[5] abbreviates: A3.01 cells, absence of HIV-1 infection, mean ± SD, read-out: CC50.

The structures appear in SMILES notation. Where two headings read alike, the source gives them in different places. Some results are limits rather than exact numbers.

As to `CC(C)[C@]12O[C@H]1[C@@H]1O[C@]13[C@]1(O[C@H]1C[C@H]1C4=C(CC[C@@]13C)C(=O)OC4)[C@@H]2O` [triptolide, reference compound], the half-maximal cytotoxic concentration (CC50) at 48 h in data set [1] (TZM-bl cells, absence of HIV-1 infection, mean ± SD, read-out: CC50) is 20 nM. In data set [2] (setting [5]), the CC50 at 3 days is 220 ± 40 nM. The “SI (CC50/EC50)” value in the data set with HIV-1NL4-3 was found to be 54.05. In the data set with HIV-1NL4-3 (p24), this compound displayed a half-maximal effective concentration (EC50) of 4.07 ± 2.3 nM.

As to `C[C@@H]1CCO[C@H]2Cn3cc(C(=O)NCc4ccc(F)cc4F)c(=O)c(O)c3C(=O)N12` [DTG, dolutegravir, reference compound], in data set [2], the CC50 at 3 days was 7670 ± 610 nM. Besides, in the data set with HIV-1NL4-3, the “SI (CC50/EC50)” value is >7,670. The EC50 in the data set on HIV-1NL4-3 (p24) was less than 1 nM; in data set [3] it was 10 ± 10 nM; in data set [4], 10 nM.

As for `O=C1Nc2ccc(Cl)cc2[C@@](C#CC2CC2)(C(F)(F)F)O1` [EFV, efavirenz, reference compound], in data set [2] (setting [5]), the CC50 at 3 days stood at 22700 ± 1650 nM. Also, in the data set with HIV-1NL4-3, the “SI (CC50/EC50)” value is recorded as >22,740. The compound further gave an EC50 with HIV-1NL4-3 (p24) of less than 1 nM.

For `Cc1[nH]c2ccc(-c3nnc(SCC(=O)N4CCCCC4)o3)cc2c1C` [Compound 9, 2-((5-(2,3-Dimethyl-1H-indol-5-yl)-1,3,4-oxadiazol-2-yl)thio)-1-(piperidin-1-yl)ethan-1-one], the 50% cytotoxic concentration (CC50) at 48 h in data set [1] is 63200 ± 5940 nM. This compound gave a cytotoxic concentration (CC50) at 3 days in data set [2] of 56100 ± 4480 nM. Also, the “SI (CC50/EC50)” value in the data set with HIV-1NL4-3 amounted to 224.40. The concentration giving a half-maximal response (EC50) amounted to 250 ± 60 nM in the data set with HIV-1NL4-3 (p24, mean ± SD); 70 nM in data set [3]; 80 ± 20 nM in data set [4]. In the data set with HIV-1NL4-3, the “inhibition of viral replication (in words)” value was “inhibited the viral replication”.

Compound `Cc1[nH]c2ccc(-c3nnc(SCC(=O)N4CCCC4)o3)cc2c1C` [Compound 13, 2-((5-(2,3-Dimethyl-1H-indol-5-yl)-1,3,4-oxadiazol-2-yl)thio)-1-(pyrrolidin-1-yl)ethan-1-one] registered a CC50 at 48 h in data set [1] of 47100 ± 7720 nM. The cytotoxic concentration (CC50) at 3 days in data set [2] came out at 47600 ± 1880 nM. Moreover, the “SI (CC50/EC50)” value in the data set on HIV-1NL4-3 is listed as 93.29. Further, the half-maximal effective concentration (EC50) is 510 ± 210 nM with HIV-1NL4-3 (p24, mean ± SD); 140 ± 10 nM in data set [3]; 230 ± 20 nM in data set [4]. Further, the “inhibition of viral replication (in words)” value in the data set with HIV-1NL4-3 was “inhibited the viral replication”.
